Experimental data: patent publication US20210301038A1, “POLYSIALIC ACID AND DERIVATIVES THEREOF, PHARMACEUTICAL COMPOSITION AND METHOD OF PRODUCING POLYSIALIC ACID” (Medizinische Hochschule Hannover (MHH), priority 2018, published 2021)

Columns and labels:
[1] = system: C57BL/6J mice with intra-mPFC endoNF injection; test: Novel object recognition test before and after intra-mPFC endoNF injection; assay type: in vivo, mouse; settings: 30 min before encoding; sarcosine 600 mg/kg i.p. (d2); DP12 (d5) and DP1 (d6) 1 mg/kg intranasally
Description: Guide cannulas were fabricated using stainless steel tubing with outer/inner diameter Ø 0.711/0.483 mm (Science Products, Germany). Dummy cannulas were made from entomological pins, size 2, Ø 0.41 mm (FST, Germany). Chronic implantation of cannulas into the mPFC in mice was performed as described previously for intrahippocampal injections (Kochlamazashvili et al., 2012; Senkov et al., 2015; Senkov et al., 2006).
Acute injection of endoNF in vivo was done under a short isoflurane anesthesia. For intra-mPFC injection, we used a digitally controlled infusion system (UltraMicroPump, UMP3, and Micro4 Controller, WPI, USA) fed with a 10 μl-Hamilton syringe and NanoFil 135 μm (35 GA) beveled needle. The thin (135 μm) part of the needle went into the mouse brain during injection, whereas its thick part (430 μm) fit perfectly in the guide cannula (inside 483 μm). Injections were performed as follows: 1) a mouse was anesthetized with 1-3% isoflurane as during implantation; 2) it was put into the stereotaxic frame; 3) the dummy cannula was gently removed from the left guide cannula; 4) a NanoFil injecting needle was carefully placed inside of the guide cannula and advanced further down until reaching the marker (made with a permanent pen at the needle shank (430 μm) to visualize the point when the needle should reach the surface of the brain coming out of the guide cannula (equal to the length of guide cannula); 5) once the marker was reached, a slow (10 μm increment) step dial was used to deepen the needle into the brain; 6) endoNF (2 μg/μl) or vehicle was injected with the following settings: 250 nl per site as deep as 1.5 and 2.25 mm from the brain surface (total injection volume per hemisphere 500 nl, injection rate of 3 nl/s); 7) after injection was complete (˜5 min), the needle was left in the injection site for another 5 min and then gently removed; 8) the dummy cannula was then put back to its place; 9) the same procedure was performed for the right hemisphere. The whole injection process took approximately 20-25 min under isoflurane anesthesia, and the mice recovered rather quickly, starting to move in approximately 2-3 min after being returned to their home cages. Complete recovery of a mouse after such short anesthesia usually occurs within 3-5 min. After injection, mice were returned to their animal facility. Behavior experiments started on the day after injection at approximately the same time, so that we could perform cognitive tests 24 hours after injection.
A white open field arena (50×50×30 cm) was used in the novel object recognition task. All behavior was video recorded and analyzed automatically by software (ANY-maze, version 4.99, Stoelting Co., Wood Dale, Ill.). […]

[2] = system: 5×FAD mice; test: Recency test (increased difficulty) in 5×FAD mice; assay type: in vivo, mouse; settings: intranasal, 0.5 mg/kg DP12 or equimolar
Description: The recency test comprised of two encoding phases followed by a retrieval phase (modified from Nelson et al., 2011). The interval between the encoding phases was 1 h, and the interval between the second encoding phase and the retrieval phase was 10 min, except for experiments in 5×FAD mice when both intervals were 90 min to make the task more difficult. In the first encoding phase, animals were placed into the open field arena and allowed to explore a pair of identical objects for 10 min. Then, a different pair of identical objects was presented in the second encoding phase (10 min total exploration time). During the retrieval phase, two different objects, one object from each encoding phase, were placed into the apparatus and animals were given 10 min to explore them.
Animals were randomly assigned to treatment groups using a randomized block design to counterbalance differences in age. The time of the day when tests were performed for different animals was also counterbalanced between treatment groups using a randomized block design. All measurements and statistical analyses were performed performed blindly, i.e. the tubes containing drugs/vehicle were coded. Exploration was defined as the animal approaching the object at a distance of less than 2 cm. The animal climbing onto the object with both hind- and forelimbs was not considered as exploration. In the same trial, objects were counterbalanced, and between trials, the placements of novel and familiar objects were changed. The objects used in the novel object recognition test were not employed in the recency test. Novelty detection was evaluated by calculating the discrimination ratio as follows: [novel object time−familiar object time]/[novel object time+familiar object time]×100%. In the recency test, the discrimination ratio was calculated as follows: [least recent object time−most recent object time]/[least object time+most recent object time]×100%. Unreliable measurements (about 10%), when animals spent in total ≤10 s near to both objects, were excluded from analysis.
As the recency test was consistently used for analysis of DP12 effects in other mouse models, it was further investigated whether 13- to 14-month-old 5×FAD mice are impaired in this form of memory. In this series of experiments, the intervals between each session during recency test were increased to 90 min to increase the difficulty to recall the temporal order of the two objects shown in the arena (FIG. 12(A)). […] To verify whether DP12 or avDP10-9OAc may improve cognitive function in the 5×FAD model of AD, these compounds or a vehicle (H2O) were intranasally delivered in the same cohort of 5×FAD mice before multiple recency test sessions (separated by 4 day-interval). The numbers of mice in each treatment group during one session were counterbalanced and each mouse received in a random order both drugs and the vehicle. […] In contrast, vehicle-treated 5×FAD mice explored the two objects equally (FIG. 12(C)).

[3] = 2 hours before test, 90 min intervals

(α(2→8)Neu5Ac)12 [DP12]
novel object recognition after intra-mPFC endoNF injection [1]: significantly improved novel object recognition | exploration of least recent versus most recent object in the retrieval phase [2, 3]: clear preference for the least recently explored object | object discrimination (discrimination ratio) compared to vehicle [2, 3]: significant difference in object discrimination | number of mice showing discrimination more than 20% ([2]; n=11 5×FAD mice): 10 of 11
